Active and inactive are the calls of the source.
Key:
[1] = target: T1, Peroxisomal acyl-coenzyme A oxidase 3 (Homo sapiens, UniProt O15254)
T1 sequence (O15254 whole entry): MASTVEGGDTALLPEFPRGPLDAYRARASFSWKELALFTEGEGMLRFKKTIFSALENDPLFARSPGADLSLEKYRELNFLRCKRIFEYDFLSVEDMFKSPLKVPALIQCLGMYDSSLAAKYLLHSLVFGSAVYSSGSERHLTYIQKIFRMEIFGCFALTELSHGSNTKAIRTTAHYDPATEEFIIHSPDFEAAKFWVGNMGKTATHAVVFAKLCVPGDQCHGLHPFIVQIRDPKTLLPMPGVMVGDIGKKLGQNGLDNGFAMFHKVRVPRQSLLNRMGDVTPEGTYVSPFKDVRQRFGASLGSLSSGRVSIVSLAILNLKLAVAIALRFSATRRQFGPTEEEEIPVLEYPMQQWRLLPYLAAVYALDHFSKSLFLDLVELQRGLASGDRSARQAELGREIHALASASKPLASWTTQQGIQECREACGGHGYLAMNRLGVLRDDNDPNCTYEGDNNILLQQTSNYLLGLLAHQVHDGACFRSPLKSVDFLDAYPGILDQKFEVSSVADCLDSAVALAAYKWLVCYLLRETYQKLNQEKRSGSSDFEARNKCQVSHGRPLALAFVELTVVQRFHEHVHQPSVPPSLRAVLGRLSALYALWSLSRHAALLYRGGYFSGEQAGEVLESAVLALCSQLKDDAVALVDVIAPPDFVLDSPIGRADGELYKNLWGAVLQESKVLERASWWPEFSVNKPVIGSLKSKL

[2] = target: Atypical kinase COQ8A, mitochondrial (Homo sapiens, UniProt Q8NI60)
[3] = target: MAP kinase-activated protein kinase 2 (Homo sapiens, UniProt P49137)
[4] = target: 26S proteasome regulatory subunit 6B (Homo sapiens, UniProt P43686)
[5] = target: T2, ADP/ATP translocase 3 (Homo sapiens, UniProt P12236)
T2 sequence (P12236 whole entry): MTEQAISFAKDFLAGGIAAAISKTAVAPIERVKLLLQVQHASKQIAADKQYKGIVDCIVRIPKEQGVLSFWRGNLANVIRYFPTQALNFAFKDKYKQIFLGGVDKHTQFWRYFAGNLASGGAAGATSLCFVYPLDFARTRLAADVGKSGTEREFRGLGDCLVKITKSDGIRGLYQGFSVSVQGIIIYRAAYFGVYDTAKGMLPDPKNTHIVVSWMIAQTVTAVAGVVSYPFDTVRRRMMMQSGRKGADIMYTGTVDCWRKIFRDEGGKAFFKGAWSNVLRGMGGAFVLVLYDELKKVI

[6] = target: T3, Signal recognition particle receptor subunit alpha (Homo sapiens, UniProt P08240)
T3 sequence (P08240 whole entry): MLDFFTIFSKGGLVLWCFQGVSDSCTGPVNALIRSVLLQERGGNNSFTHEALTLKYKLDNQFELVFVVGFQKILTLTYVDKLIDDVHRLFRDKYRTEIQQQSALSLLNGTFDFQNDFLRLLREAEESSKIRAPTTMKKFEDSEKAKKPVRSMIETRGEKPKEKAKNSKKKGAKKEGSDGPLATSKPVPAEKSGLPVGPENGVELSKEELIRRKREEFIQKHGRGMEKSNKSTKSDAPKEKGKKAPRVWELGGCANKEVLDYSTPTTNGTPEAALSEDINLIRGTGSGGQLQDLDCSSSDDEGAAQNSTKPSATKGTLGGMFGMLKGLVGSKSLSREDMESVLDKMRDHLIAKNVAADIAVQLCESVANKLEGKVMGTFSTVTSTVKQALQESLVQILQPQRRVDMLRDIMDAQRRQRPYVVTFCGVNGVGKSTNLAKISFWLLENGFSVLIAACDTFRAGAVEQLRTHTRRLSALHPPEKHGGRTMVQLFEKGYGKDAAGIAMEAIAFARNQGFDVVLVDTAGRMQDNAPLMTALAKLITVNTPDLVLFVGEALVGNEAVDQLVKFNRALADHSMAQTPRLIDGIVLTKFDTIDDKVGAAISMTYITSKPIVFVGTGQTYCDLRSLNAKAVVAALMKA

[7] = target: T4, Tyrosine-protein kinase Tec (Homo sapiens, UniProt P42680)
T4 sequence (P42680 whole entry): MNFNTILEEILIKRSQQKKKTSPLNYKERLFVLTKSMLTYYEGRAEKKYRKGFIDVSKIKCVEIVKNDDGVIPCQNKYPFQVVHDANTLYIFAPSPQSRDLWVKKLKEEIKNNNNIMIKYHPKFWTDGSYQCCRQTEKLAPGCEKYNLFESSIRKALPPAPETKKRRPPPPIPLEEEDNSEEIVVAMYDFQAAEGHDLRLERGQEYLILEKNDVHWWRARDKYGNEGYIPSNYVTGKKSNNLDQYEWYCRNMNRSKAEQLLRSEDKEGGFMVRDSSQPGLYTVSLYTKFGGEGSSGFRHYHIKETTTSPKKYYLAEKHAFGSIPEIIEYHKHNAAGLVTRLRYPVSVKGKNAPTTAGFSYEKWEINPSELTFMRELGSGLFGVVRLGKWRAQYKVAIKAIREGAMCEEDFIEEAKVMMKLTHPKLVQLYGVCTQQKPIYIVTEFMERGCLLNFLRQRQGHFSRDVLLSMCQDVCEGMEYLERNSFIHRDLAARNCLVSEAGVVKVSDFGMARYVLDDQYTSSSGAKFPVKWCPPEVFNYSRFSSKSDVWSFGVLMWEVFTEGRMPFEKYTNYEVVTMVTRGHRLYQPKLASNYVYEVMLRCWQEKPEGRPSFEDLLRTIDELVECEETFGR

[8] = target: DNA topoisomerase 2-beta (Homo sapiens, UniProt Q02880)
Also: in the data inactive means no Kd found up to 30 µM.

Sequence of DNA topoisomerase 2-beta (Q02880 whole entry): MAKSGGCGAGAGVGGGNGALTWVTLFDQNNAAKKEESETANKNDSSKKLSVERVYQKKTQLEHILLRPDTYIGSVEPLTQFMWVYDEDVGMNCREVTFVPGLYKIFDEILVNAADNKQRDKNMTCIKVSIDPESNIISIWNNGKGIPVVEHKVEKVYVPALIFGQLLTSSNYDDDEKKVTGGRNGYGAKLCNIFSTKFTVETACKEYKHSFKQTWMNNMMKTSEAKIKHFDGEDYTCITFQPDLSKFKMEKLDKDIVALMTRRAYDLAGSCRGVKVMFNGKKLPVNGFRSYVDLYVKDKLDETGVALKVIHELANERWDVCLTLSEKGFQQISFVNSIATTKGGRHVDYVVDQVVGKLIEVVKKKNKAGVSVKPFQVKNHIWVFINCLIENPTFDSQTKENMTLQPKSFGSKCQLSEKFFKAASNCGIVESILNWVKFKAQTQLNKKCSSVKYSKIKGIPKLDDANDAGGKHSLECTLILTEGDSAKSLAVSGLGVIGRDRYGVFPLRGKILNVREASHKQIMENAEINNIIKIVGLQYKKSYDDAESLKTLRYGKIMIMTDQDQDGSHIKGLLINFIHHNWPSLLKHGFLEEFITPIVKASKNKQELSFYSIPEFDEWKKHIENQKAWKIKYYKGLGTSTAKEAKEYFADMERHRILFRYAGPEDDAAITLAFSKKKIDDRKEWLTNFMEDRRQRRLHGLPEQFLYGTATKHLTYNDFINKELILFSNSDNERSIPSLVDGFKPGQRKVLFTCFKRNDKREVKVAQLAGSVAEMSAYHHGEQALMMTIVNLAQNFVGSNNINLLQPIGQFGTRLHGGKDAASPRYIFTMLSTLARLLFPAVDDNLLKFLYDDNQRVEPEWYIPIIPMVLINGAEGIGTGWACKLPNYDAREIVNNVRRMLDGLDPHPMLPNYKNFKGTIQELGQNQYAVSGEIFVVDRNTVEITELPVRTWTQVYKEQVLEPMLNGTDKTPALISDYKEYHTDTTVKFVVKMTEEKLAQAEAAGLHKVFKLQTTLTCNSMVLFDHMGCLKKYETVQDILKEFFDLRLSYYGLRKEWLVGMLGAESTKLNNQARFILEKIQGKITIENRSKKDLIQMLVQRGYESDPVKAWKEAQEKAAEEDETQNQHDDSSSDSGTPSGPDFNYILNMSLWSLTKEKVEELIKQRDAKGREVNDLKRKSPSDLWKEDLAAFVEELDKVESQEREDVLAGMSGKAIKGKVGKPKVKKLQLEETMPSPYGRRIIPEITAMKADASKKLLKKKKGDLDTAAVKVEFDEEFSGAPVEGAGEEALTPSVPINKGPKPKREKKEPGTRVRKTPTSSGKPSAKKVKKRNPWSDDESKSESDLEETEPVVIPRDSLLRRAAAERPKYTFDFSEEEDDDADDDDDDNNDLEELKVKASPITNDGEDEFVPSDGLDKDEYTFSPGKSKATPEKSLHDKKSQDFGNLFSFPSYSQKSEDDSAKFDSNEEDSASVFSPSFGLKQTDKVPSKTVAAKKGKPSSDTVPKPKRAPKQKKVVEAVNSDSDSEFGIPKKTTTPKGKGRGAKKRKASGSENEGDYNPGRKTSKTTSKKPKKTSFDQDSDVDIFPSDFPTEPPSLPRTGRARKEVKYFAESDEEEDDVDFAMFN
Sequence of Atypical kinase COQ8A, mitochondrial (Q8NI60 whole entry): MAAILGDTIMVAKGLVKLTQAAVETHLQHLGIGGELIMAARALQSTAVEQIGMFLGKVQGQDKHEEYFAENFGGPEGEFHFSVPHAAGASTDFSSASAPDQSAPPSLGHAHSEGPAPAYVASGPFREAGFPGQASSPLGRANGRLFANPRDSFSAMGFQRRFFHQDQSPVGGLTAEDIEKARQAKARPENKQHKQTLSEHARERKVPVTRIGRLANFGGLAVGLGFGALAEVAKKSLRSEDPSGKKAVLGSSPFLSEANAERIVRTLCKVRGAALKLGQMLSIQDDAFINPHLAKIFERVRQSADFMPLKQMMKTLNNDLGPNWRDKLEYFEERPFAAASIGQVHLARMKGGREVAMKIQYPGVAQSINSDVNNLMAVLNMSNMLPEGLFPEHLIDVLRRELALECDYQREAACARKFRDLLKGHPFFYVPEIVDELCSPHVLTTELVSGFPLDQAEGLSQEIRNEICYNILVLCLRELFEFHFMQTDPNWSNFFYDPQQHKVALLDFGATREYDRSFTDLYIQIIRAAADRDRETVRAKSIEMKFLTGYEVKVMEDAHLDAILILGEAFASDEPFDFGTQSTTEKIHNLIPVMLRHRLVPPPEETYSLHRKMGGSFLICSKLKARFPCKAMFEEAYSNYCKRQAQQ
Sequence of 26S proteasome regulatory subunit 6B (P43686 whole entry): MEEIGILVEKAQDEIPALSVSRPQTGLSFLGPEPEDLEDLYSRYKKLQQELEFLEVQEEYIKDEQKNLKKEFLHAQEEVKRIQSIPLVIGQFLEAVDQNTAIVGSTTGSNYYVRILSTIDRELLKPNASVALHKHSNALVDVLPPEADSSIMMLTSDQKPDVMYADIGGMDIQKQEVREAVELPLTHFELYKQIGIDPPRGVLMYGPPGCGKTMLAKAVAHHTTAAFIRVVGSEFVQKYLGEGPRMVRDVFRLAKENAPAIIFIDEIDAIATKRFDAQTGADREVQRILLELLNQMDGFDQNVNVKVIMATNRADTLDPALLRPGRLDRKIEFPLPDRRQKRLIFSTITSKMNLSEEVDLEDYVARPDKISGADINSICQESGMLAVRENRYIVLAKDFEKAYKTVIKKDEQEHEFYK
Sequence of MAP kinase-activated protein kinase 2 (P49137 whole entry): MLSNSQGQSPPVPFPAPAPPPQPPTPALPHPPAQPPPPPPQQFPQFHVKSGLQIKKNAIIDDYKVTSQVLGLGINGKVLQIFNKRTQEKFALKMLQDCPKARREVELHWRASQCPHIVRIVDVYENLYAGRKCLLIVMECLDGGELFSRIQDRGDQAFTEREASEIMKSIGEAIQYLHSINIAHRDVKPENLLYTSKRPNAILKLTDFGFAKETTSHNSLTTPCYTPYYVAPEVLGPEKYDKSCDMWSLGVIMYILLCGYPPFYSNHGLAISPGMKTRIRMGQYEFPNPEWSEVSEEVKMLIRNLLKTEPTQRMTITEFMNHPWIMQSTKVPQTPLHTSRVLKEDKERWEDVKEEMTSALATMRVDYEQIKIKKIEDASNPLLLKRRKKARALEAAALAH

Kd [1]	Kd [2]	Kd [3]	Kd [4]	Kd [5]	Kd [6]	Kd [7]	Kd [8]	Structure (SMILES)
> 30 µM (inactive)	> 30 µM (inactive)	0.027 µM (active)	> 30 µM (inactive)	> 30 µM (inactive)	> 30 µM (inactive)	> 30 µM (inactive)	> 30 µM (inactive)	Cc1c(F)cc(C(=O)NC2CC2)cc1-c1ccc(C(=O)NCC(C)(C)C)cn1 [LOSMAPIMOD]
> 30 µM (inactive)	> 30 µM (inactive)	> 30 µM (inactive)	> 30 µM (inactive)	> 30 µM (inactive)	> 30 µM (inactive)	> 30 µM (inactive)	> 30 µM (inactive)	Cn1cc(-c2ccc(F)c(C(F)(F)F)c2)nc1C1CCN(c2ncnc3[nH]ncc23)CC1 [LY-2584702]
> 30 µM (inactive)	> 30 µM (inactive)	> 30 µM (inactive)	> 30 µM (inactive)	> 30 µM (inactive)	> 30 µM (inactive)	0.707 µM (active)	> 30 µM (inactive)	O=C(O)[C@]1(Cc2cccc(Nc3nccs3)n2)CC[C@@H](Oc2cccc(Cl)c2F)CC1 [MK-5108]
> 30 µM (inactive)	> 30 µM (inactive)	> 30 µM (inactive)	> 30 µM (inactive)	> 30 µM (inactive)	> 30 µM (inactive)	> 30 µM (inactive)	> 30 µM (inactive)	C1=C/COCc2cc(ccc2OCCN2CCCC2)Nc2nccc(n2)-c2cccc(c2)COC/1 [PACRITINIB]
> 30 µM (inactive)	> 30 µM (inactive)	0.682 µM (active)	> 30 µM (inactive)	> 30 µM (inactive)	> 30 µM (inactive)	> 30 µM (inactive)	> 30 µM (inactive)	CNC(=O)c1cc(Oc2ccc(NC(=O)Nc3ccc(Cl)c(C(F)(F)F)c3)c(F)c2)ccn1 [REGORAFENIB]
> 30 µM (inactive)	> 30 µM (inactive)	> 30 µM (inactive)	> 30 µM (inactive)	> 30 µM (inactive)	> 30 µM (inactive)	> 30 µM (inactive)	> 30 µM (inactive)	CN(C)C(=O)c1cc2cnc(Nc3ccc(N4CCNCC4)cn3)nc2n1C1CCCC1 [RIBOCICLIB]
> 30 µM (inactive)	> 30 µM (inactive)	> 30 µM (inactive)	> 30 µM (inactive)	> 30 µM (inactive)	> 30 µM (inactive)	> 30 µM (inactive)	> 30 µM (inactive)	COc1cc(OC)c(/C=C/S(=O)(=O)Cc2ccc(OC)c(NCC(=O)O)c2)c(OC)c1 [RIGOSERTIB]
> 30 µM (inactive)	> 30 µM (inactive)	> 30 µM (inactive)	> 30 µM (inactive)	> 30 µM (inactive)	> 30 µM (inactive)	> 30 µM (inactive)	> 30 µM (inactive)	CN1CCC(CNc2ccc3ncc(-c4cccc(OC(F)(F)F)c4)n3n2)CC1 [SGI-1776]
> 30 µM (inactive)	> 30 µM (inactive)	0.019 µM	> 30 µM (inactive)	> 30 µM (inactive)	> 30 µM (inactive)	> 30 µM (inactive)	> 30 µM (inactive)	C[C@@H]1CN(Cc2ccc(F)cc2)[C@@H](C)CN1C(=O)c1cc2c(C(=O)C(=O)N(C)C)cn(C)c2cc1Cl [TALMAPIMOD]
> 30 µM (inactive)	> 30 µM (inactive)	> 30 µM (inactive)	> 30 µM (inactive)	> 30 µM (inactive)	> 30 µM (inactive)	> 30 µM (inactive)	> 30 µM (inactive)	O=c1sn(-c2cccc3ccccc23)c(=O)n1Cc1ccccc1 [TIDEGLUSIB]
> 30 µM (inactive)	> 30 µM (inactive)	> 30 µM (inactive)	> 30 µM (inactive)	> 30 µM (inactive)	> 30 µM (inactive)	> 30 µM (inactive)	> 30 µM (inactive)	COc1cc2nccc(Oc3ccc(NC(=O)Nc4cc(C)on4)c(Cl)c3)c2cc1OC [TIVOZANIB]
> 30 µM (inactive)	> 30 µM (inactive)	> 30 µM (inactive)	> 30 µM (inactive)	> 30 µM (inactive)	> 30 µM (inactive)	> 30 µM (inactive)	> 30 µM (inactive)	CC(=O)Nc1cccc(-n2c(=O)n(C3CC3)c(=O)c3c(Nc4ccc(I)cc4F)n(C)c(=O)c(C)c32)c1 [TRAMETINIB]
> 30 µM (inactive)	> 30 µM (inactive)	> 30 µM (inactive)	> 30 µM (inactive)	> 30 µM (inactive)	> 30 µM (inactive)	> 30 µM (inactive)	> 30 µM (inactive)	CN1N=C(N)c2cn([C@@H]3O[C@H](COP(=O)(O)O)[C@@H](O)[C@H]3O)c3ncnc1c23 [TRICIRIBINE PHOSPHATE]
> 30 µM (inactive)	> 30 µM (inactive)	> 30 µM (inactive)	> 30 µM (inactive)	> 30 µM (inactive)	> 30 µM (inactive)	> 30 µM (inactive)	> 30 µM (inactive)	CC(C)Nc1cc(-c2c[nH]c(C(=O)N[C@H](CO)c3cccc(Cl)c3)c2)c(Cl)cn1 [ULIXERTINIB]
> 30 µM (inactive)	> 30 µM (inactive)	> 30 µM (inactive)	> 30 µM (inactive)	> 30 µM (inactive)	> 30 µM (inactive)	> 30 µM (inactive)	> 30 µM (inactive)	CC[C@@H]1C(=O)N(C)c2cnc(Nc3ccc(C(=O)N[C@H]4CC[C@H](N5CCN(CC6CC6)CC5)CC4)cc3OC)nc2N1C(C)C [VOLASERTIB]

Structure (SMILES)	Kd [1]	Kd [2]	Kd [3]	Kd [4]	Kd [5]	Kd [6]	Kd [7]	Kd [8]
Cc1ccc(-n2nc(C(C)(C)C)cc2NC(=O)NCc2cc(F)ccc2Oc2ccc3c(cnn3CCO)c2)cc1 [PEXMETINIB]	> 30 µM (inactive)	> 30 µM (inactive)	0.067 µM (active)	> 30 µM (inactive)	> 30 µM (inactive)	> 30 µM (inactive)	> 30 µM (inactive)	> 30 µM (inactive)
C=CC(=O)N1CCC(Oc2cc3c(Nc4ccc(Cl)c(Cl)c4F)ncnc3cc2OC)CC1 [POZIOTINIB]	> 30 µM (inactive)	> 30 µM (inactive)	> 30 µM (inactive)	> 30 µM (inactive)	> 30 µM (inactive)	> 30 µM (inactive)	0.069 µM (active)	> 30 µM (inactive)
CN1CCC(COc2cnc(-c3cccc(Cn4nc(-c5cccc(C#N)c5)ccc4=O)c3)nc2)CC1 [TEPOTINIB]	> 30 µM (inactive)	> 30 µM (inactive)	> 30 µM (inactive)	> 30 µM (inactive)	> 30 µM (inactive)	> 30 µM (inactive)	> 30 µM (inactive)	> 30 µM (inactive)
